# Reference: patent US10869863B2, “Multi-arm polymeric targeting anti-cancer conjugate” (priority 2016, dated 2020)
# Experiments:
# [1] = system: human breast cancer MDA-MB-231 transplanted tumor; experiment: Inhibitory effect in human breast cancer MDA-MB-231 xenograft model in nude mice; format: in vivo; conditions: MDA-MB-231 in female BALB/c nude mice; 40 mg·kg^−1 IV Q4D×3; 3 weeks; n=5
# Description: MDA-MB-231 cells were cultured in DMEM, which contained 10% fetal bovine serum FBS (GIBCO, USA). The cells were placed in a 37° C. incubator containing 5% CO2 to cultivate.
# A subcutaneous tumor xenograft model in nude mice was established by cell inoculation method: tumor cells in logarithmic phase of growth were collected, counted and then resuspended in 1×PBS, and the concentration of the cell suspension was adjusted to 1×10^7/mL. 1 mL syringes (4 gauge needle) were used to inoculate the tumor cells to the right back of the nude mice subcutaneously, 1×10^6/0.1 mL/mice. […]
# (§1) The experimental period lasted for 3 weeks, and the body weights and the tumor sizes of the animals were measured twice a week during the experiment. The clinical symptoms were observed and recorded daily. On the last day of the experiment, the animals were sacrificed, the body weights were weighed, and the tumors were excised, weighed and recorded by photographing.
# (§2) The calculation formula of the tumor volume (TV) was: TV=a×b^2/2, wherein a and b represented the measured length and width of the tumor, respectively. The calculation formula of the relative tumor volume (RTV) was: RTV=Vt/V0, wherein V0 was the tumor volume measured at the time of grouping and first administration, and Vt was the tumor volume at the time of a measurement.
# [2] = system: human colon cancer HT-29 transplanted tumor; experiment: Inhibitory effect on in vivo tumor growth, human colon cancer HT-29 transplanted tumor model in nude mice; conditions: HT-29 in female BALB/c nude mice; 40 mg·kg^−1 (as content of active agent) IV Q4D×3; experiment ended after 21 days; n=5
# Description: HT-29 cells in logarithmic phase of growth were collected. […] Cell suspension was aspirated with a 1 mL syringe, and injected subcutaneously to the anterior right armpit of nude mice. Each animal was inoculated with 100 μL (6×10^6 cells/animal), and the HT-29 transplated tumor model in nude mice was established. Animal status and the condition of tumor growth were observed regularly after inoculation, an electronic vernier caliper was used to measure the tumor diameters, the data was directly input to an Excel spreadsheet, and the tumor volumes were calculated. […] The tumor diameters were measured twice a week after the initiation of the experiment, the tumor volumes were calculated, and the body weights of the animals were weighed and recorded at the same time.
# The calculation formula of the tumor volume (TV) was as follows: TV(mm^3)=l×w^2/2
# (§3) The first administration was initiated on the day of grouping, the experiment was ended after 21 days, and the volumes of administration were all 10 mL·kg^−1. […]
# On the last day of the experiment, the animals were euthanized (CO2) after the body weights were weighed and the tumor diameters were measured. The tumor tissues were excised, weighed and photographed (respectively photographed according to the following combinations), and the tumor weight inhibition rates were calculated. […]
# [3] = system: human gastric cancer NCI-N87 transplanted tumor; experiment: Inhibitory effect on in vivo tumor growth, human gastric cancer NCI-N87 cell strain transplanted tumor model in nude mice; conditions: 40 mg·kg^−1 (as active agent) IV Q4D × 3, n=5
# Description: NCI-N87 cells in logarithmic phase of growth were collected. […] Cell suspension was aspirated with a 1 mL syringe, and injected subcutaneously to the anterior right armpit of the nude mice. Each animal was inoculated with 100 μL (5×10^6 cells/animal), and the NCI-N87 transplanted tumor model in nude mice was established. Animal status and the condition of tumor growth were observed regularly after inoculation, an electronic vernier caliper was used to measure the tumor diameters, the data was directly input to an Excel spreadsheet, and the tumor volumes were calculated. […] The tumor diameters were measured twice a week after the initiation of the experiment, the tumor volumes were calculated, and the body weights of the animals were weighed and recorded at the same time.
# The calculation formula of the tumor volume (TV) was as follows: TV(mm^3)=l×w^2/2 wherein l represented the long diameter of a tumor (mm), and w represented the short diameter of a tumor (mm).
# as §3
# After the experiment was ended, the animals were euthanized (CO2) after the body weights were weighed and the tumor diameters were measured. The tumor tissues were excised and weighed, and the tumor weight inhibition rates were calculated. […]
# [4] = system: human pancreatic cancer MIA Paca-2 transplanted tumor; experiment: Inhibitory effect in human pancreatic cancer MIA Paca-2 xenograft model in nude mice; format: in vivo; conditions: MIA Paca-2 in female BALB/c-nu/nu nude mice; 40 mg·kg^−1 IV Q4D×3; 3 weeks; n=5
# Description: The cells were placed in a 37° C. incubator containing 5% CO2 to cultivate.
# A subcutaneous tumor xenograft model in nude mice was established by cell inoculation method: tumor cells in logarithmic phase of growth were collected, counted and then resuspended in 1×PBS, and the concentration of the cell suspension was adjusted to 3×10^7/mL. 1 mL syringes (4 gauge needle) were used to inoculate the tumor cells to the right back of the nude mice subcutaneously, 3×10^6/0.1 mL/mice. […]
# as §1, §2
# [5] = system: orthotopic U87MG brain glioma; format: in vivo, human; conditions: orthotopic U87MG brain glioma in nude mice; 40 mg·kg^−1 (as active agent) IV Q4D × 3; n=5
# Description: U87MG cells in logarithmic phase of growth were collected. […] The cells were charged into a 50 mL centrifuge tube after being pipetted with a pipettor to make them evenly dispersed, and the centrifuge tube was placed in an ice box. Cell suspension was aspirated with a 1 mL syringe, 1 μL of human brain glioma cell (U87MG cells) cultured in vitro was inoculated (1×10^5 cells/animal) using microinjection method via the guidance of a stereotactic apparatus for animals, the orthotopic U87MG brain glioma model was established, and animal status was observed periodically after inoculation.
# The first administration was initiated on the day of grouping, the experiment was ended after 21 days, and the volumes of administration were all 10 mL·kg^−1. Group 1 was a solvent control group, and was given blank solvent by intravenous injection via tail once every 4 days for a total of 3 times (Q4D×3).
# The first administration was initiated on the day of grouping, the experiment was ended after 21 days, and the volumes of administration were all 10 mL·kg^−1.
# Groups with 10-hydroxycamptothecin as the active agent (Groups 14 to 18). The first administration was initiated on the day of grouping, the experiment was ended after 21 days, and the volumes of administration were all 10 mL·kg^−1.
# Groups with rubitecan as the active agent (Groups 19 to 23). […]
# The survival time of the animals were recorded.
smiles,measurement,setting,value
CCc1c2c(nc3ccc(OC(=O)N4CCC(N5CCCCC5)CC4)cc13)-c1cc3c(c(=O)n1C2)COC(=O)[C@]3(O)CC [irinotecan],Relative tumor proliferation rate (% T/C),[1],44.8%^
same,Relative tumor proliferation rate (% T/C),[2],69%
same,Average relative tumor proliferation rate (% T/C),[3],63.2%
same,Relative tumor proliferation rate (% T/C),[4],59.4%
same,Median survival time,[5],27 days
